The values that follow come from patent US9957214B2, “Multifunctional radical quenchers” (ARIZONA BOARD OF REGENTS ON BEHALF OF ARIZONA STATE …, priority 2012, dated 2018).

The structures appear in SMILES notation. Read-outs that look alike come from different tables or passages of the source.

Usually melting point stands for the temperature, or range, at which the solid turns liquid. Usually IC50 stands for the midpoint of a concentration-inhibition curve. A word on the viability: it is the share of living cells, or the viability signal relative to a control.

For series [1], the target named is bovine heart mitochondrial complex I (Bos taurus, UniProt P03887+P17694+P42026). The series is described as follows: Complex I (NADH-Q1 oxidoreductase) inhibition in submitochondrial particles. Type of series: biochemical.
The test system of series [2] is Friedreich's ataxia lymphoblast cell line GM15850. Nature of the series: Cytoprotection (trypan blue exclusion assay) of DEM-treated FRDA lymphocytes. Type of series: cell-based. Conditions: for viability at 5 µM / viability at 0.1 µM / viability at 0.5 µM / viability at 2.5 µM: Homo sapiens, GM15850, DEM alone 18 ± 10% viability, read-out: Cytoprotection (cell viability, % of untreated control). The procedure:
Cell viability was determined by trypan blue exclusion assay in Friedreich's ataxia lymphoblast cell line GM15850 (Coriell Institute, New Jersey). This technique was used to assess the cytoprotective effects of the tested compounds in cultured cells treated with DEM to induce cell death by GSH depletion. The viability of DEM-treated FRDA cells was determined by their ability to exclude the dye trypan blue. Viable cells exclude trypan blue, whereas non-viable cells take up the dye and stain blue. Briefly, FRDA lymphocytes were grown in RPMI 1640 medium (Gibco) supplemented with 15% fetal calf serum, 2 mM glutamine (HyClone) and 1% penicillin-streptomycin mix (Cellgro). Cells were seeded at a density of 5×10^5 cells/mL and treated with different concentrations of the indicated compounds. Cells were incubated at 37° C. in a humidified atmosphere of 5% CO2 in air for 17 h. After pre-incubation, the cells were treated with 5 mM DEM. Cell viability was determined by staining cells with 0.4% trypan blue using a hemacytometer. At least 500 cells were counted in each experimental group. At the time of assay, <20% of DEM treated cells were viable (trypan blue negative), whereas in non DEM-treated control, >90% cells were viable. Cell viability was expressed as the percentage of control. Data are expressed as means±S.E.M. (n=3).
Cell viability was determined by trypan blue exclusion assay in Friedreich's ataxia lymphoblast cell line GM15850 (Coriell Institute). This technique was used to assess the cytoprotective effects of the compounds in cultured cells treated with diethyl maleate (DEM) to induce cell death by glutathione (GSH) depletion. The viability of DEM-treated FRDA cells was determined by their ability to exclude the dye trypan blue. Viable cells exclude trypan blue, whereas non-viable cells take up the dye and stain blue. […] Benzoquinone analogue 9 afforded greater cyoprotection to FRDA lymphocytes at 5 μM concentration than did the tert-butyl ester 6 (74 vs 50%).

The subject of another series is FRDA lymphocytes. Nature of the series: Suppression of lipid peroxidation (C11-BODIPY581/591, FACS) in FRDA lymphocytes treated with diethyl maleate. The series is classed as cell-based. As to conditions: Lymphocyte, DEM, read-out: Scavenging activity (%), suppression of lipid peroxidation. The text has this:
Several methods for assaying lipid peroxidation in vitro have been developed (Kuypers et al. (1987) Biochim Biophys Acta. 25, 266-274; Pap et al. (1999) FEBS Lett. 453, 278-282; Drummen et al. (2002) Free RadicBiol Med. 33, 473-490). Almost all of these methods are based on inhibition of free radical-induced oxidation reactions. A widely used fluorescence assay for lipid peroxidation uses lipid soluble cis-parinaric acid as a probe. cis-parinaric acid loses its fluorescence (λexc/em: 320/432 nm) upon interaction with peroxyl radicals and retains its fluorescence in the presence of radical quenchers. cis-parinaric acid is, however, air sensitive, photolabile and absorbs light in the UV region of the spectrum (at ˜320 nm). […] In practical terms, the results obtained using cis-parinaric as a probe for lipid peroxidation are confounded due to the overlapping of the compounds emission spectra with the cis-parinaric emission spectrum. C11-BODIPY^581/591 Oxidation to Measure Lipid Peroxidation To overcome the problem of spectral overlap using cis-parinaric acid, a fluorescence assay for lipid peroxidation using a lipophilic probe belonging to the BODIPY class of fluorescent dyes was used C11-BODIPY^581/591 (4,4-difluoro-5(4-phenyl-1,3-butadienyl)-4-bora-3a, 4a-diaza-s-indacene-3-propionic acid) fluorescent shifts from red to green upon oxidation. C11-BODIPY^581/591 (Molecular Probes, Eugene, Oreg., USA) stock solution concentrations were determined by measuring the absorption of C11-BODIPY^581/591 at 582 nm using a molar extinction coefficient of 140,000 mol^−1 cm^−1 (R. P. Haugland, (1999) Handbook of Fluorescent Probes and Research Chemicals, Molecular Probes, Inc., Eugene, Oreg.). The lipid peroxidation inducer 2,2′-Azobis (2-amidino-propane dihydrochloride) (AAPH) and the antioxidant compound α-tocopherol (α-TOH) were obtained from Sigma (St. Louis, Mo., USA). Phospholipid bilayers were prepared from 1-stearoyl-2-oleoyl-phosphatidylcholine (SOPC) and 1,2-dilinoleoyl-phosphatidylcholine (DLPC) and were purchased from Avanti® polar lipids, Inc., (Alabaster, Ala., USA). Preparation of Liposomes Phosphotidylcholine (PC) liposomes were prepared as described before (Guey-Shuang et al. (1982) Lipids. 17, 403-413). Briefly, DLPC (25 mg) were dissolved in chloroform and the solvent was removed by nitrogen evaporation (˜2 hours) to give a thin film of PC in a round bottom flask. The lipid film was hydrated with 50 mL of 10 mM Tris-HCl (pH 7.4), 100 mM KCl, shaken and sonicated for 15 seconds. The liposomes obtained were filtered several times through […] membrane filter. Measurement of C11-BODIPY^581/591 Oxidation C11-BODIPY^581/591 was incorporated into liposomes and oxidized by peroxyl radicals derived from the decomposition of AAPH in the presence and absence of compounds. Liposomes (1 mg/mL), suspended in 10 mM Tris-HCl (pH 7.4), 100 mM KCl, were transferred to a quartz 1 mL cuvette and placed in a Varian Cary Eclipse fluorometer (Varian, Cary, N.C.) equipped with a thermostatted cuvette holder at 40° C. Liposomes were pre-incubated for 10 min with 200 nM C11-BODIPY^581/591 to allow their incorporation into the lipid phase of the liposomes. After the addition of AAPH (10 mM) the decay of the red fluorescence was followed at λ exc=570 nm, λ em=600 nm. Relative fluorescence units were normalized to 100% intensity. Results obtained were verified by repeating experiments N=3 independent experiments. Measurement of C11-BODIPY^581/591 Oxidation in Cell Culture A quantitative FACS analysis of lipid peroxidation of FRDA lymphocytes, which had been treated with diethyl maleate following incubation in the presence and absence of the test compounds, was measured as described (Khdour et al. (2011) Pharmaceut. Res. 28, 2896-2909). Briefly, FRDA lymphocytes (5×10^5 cell/mL) were treated with the test compounds at final concentrations of 5 and 10 μM and incubated at 37° C. for 16 h in a humidified atmosphere containing 5% CO2 in air. […]

Series [3] deals with NADH oxidase (complexes I, III and IV). The series is described as follows: NADH oxidase activity (complexes I, III and IV) in submitochondrial particles. The series is classed as biochemical, bovine.
The mark [4] stands for this setting: submitochondrial particles, 30° C.; read-out: Complex I inhibition IC50.
Setting [5] is: submitochondrial particles, 30° C.; read-out: Complex I inhibition Imax.

bovine heart mitochondrial complex I, sequence (P25708 21-464): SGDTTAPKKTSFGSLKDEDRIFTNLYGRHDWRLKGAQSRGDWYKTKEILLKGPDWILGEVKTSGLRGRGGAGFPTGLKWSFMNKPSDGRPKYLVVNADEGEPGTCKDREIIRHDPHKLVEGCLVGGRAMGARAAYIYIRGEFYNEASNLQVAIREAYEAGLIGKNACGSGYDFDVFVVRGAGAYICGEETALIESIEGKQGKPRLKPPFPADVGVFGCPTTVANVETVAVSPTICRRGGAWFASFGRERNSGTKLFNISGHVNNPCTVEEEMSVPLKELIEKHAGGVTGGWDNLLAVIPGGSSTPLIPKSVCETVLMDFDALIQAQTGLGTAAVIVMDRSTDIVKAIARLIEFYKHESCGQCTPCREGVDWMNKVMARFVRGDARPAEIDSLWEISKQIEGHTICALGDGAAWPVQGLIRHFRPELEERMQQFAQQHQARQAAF
bovine heart mitochondrial complex I, sequence (P42026 38-216): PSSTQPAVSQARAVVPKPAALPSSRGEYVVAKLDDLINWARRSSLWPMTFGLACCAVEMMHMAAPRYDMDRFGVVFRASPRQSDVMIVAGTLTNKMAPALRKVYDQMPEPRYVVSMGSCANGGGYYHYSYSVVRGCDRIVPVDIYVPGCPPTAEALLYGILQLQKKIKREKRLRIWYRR
bovine heart mitochondrial complex I, sequence (P17694 34-463): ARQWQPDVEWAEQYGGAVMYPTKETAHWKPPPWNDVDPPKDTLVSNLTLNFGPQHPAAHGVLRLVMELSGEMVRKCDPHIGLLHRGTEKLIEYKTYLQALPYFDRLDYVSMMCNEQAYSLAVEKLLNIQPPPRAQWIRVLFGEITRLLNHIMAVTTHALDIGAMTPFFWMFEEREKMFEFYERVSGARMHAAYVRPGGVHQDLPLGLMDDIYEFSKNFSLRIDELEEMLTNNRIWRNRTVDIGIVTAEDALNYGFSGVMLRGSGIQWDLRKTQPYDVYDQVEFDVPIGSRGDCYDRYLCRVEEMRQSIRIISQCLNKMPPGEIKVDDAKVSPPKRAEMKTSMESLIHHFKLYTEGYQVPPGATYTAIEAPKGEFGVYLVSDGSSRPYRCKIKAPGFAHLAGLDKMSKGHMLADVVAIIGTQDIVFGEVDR
bovine heart mitochondrial complex I, sequence (P15690 24-727, further chain): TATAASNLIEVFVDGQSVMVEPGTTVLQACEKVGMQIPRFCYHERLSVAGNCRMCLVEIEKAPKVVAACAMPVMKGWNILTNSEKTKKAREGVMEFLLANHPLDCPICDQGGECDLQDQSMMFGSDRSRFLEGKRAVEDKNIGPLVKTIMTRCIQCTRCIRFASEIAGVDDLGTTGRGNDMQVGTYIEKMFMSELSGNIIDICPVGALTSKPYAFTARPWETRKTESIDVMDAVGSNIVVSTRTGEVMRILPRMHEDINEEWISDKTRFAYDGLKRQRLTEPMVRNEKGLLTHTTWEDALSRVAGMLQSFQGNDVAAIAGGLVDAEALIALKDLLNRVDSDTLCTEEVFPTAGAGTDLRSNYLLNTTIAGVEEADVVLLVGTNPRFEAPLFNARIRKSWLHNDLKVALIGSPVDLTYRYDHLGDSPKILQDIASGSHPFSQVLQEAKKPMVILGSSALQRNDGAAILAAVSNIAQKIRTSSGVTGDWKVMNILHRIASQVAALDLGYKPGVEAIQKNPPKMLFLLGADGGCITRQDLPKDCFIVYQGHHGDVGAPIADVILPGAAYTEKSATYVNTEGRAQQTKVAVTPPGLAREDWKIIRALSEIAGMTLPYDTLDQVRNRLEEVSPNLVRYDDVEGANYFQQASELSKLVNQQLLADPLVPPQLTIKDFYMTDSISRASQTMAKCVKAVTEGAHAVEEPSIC
bovine heart mitochondrial complex I, sequence (P03887 whole entry): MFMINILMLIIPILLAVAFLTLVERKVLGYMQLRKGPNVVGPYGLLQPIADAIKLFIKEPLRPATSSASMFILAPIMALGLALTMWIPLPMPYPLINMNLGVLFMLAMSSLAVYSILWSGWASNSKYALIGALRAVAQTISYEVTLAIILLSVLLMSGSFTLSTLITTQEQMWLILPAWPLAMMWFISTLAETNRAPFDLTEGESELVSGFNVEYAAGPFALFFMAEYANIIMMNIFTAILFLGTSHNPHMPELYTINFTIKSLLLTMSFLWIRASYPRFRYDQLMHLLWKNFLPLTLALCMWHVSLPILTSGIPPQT
bovine heart mitochondrial complex I, sequence (P42028 37-212, further chain): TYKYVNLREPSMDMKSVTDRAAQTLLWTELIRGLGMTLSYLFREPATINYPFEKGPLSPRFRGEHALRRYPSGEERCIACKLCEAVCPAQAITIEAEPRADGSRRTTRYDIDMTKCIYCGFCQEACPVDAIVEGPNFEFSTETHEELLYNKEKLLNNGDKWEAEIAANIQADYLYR

Compound `C=CCCCCCCCCCC1=C(OC)C(=O)C=C(OC)C1=O` came in with a melting point of 30 to 31 °C.

For `C=CCCCCCCCCCC1=C(O)C(=O)C=C(OC)C1=O`, the melting point fell in the range of 89 to 90 °C.

For the compound `CCCCCCCCCCCCCC1=C(O)C(=O)C=C(NCCCC(=O)OC(C)(C)C)C1=O` [Compound 6, tert-butyl 4-(4-hydroxy-3,6-dioxo-5-tridecylcyclohexa-1,4-dienylamino)butanoate], the melting point lay in the range of 96 to 97 °C. The IC50 in series [1] (setting [4]) was 10 ± 0.6 µM. The Emax in series [1] (setting [5]) stood at 64 ± 13%. Besides, the viability at 5 µM in series [2] (5 μM) was determined as 50%. In addition, in the series on FRDA lymphocytes, the inhibition at 5 µM was determined as 26 ± 6.7% and the inhibition at 10 µM amounted to 37 ± 1.4%.

Regarding `CCCCCCCCCCCCCC1=C(O)C(=O)C=C(NCCCC(=O)O)C1=O` [Compound 8, 4-(4-hydroxy-3,6-dioxo-5-tridecylcyclohexa-1,4-dienylamino)butanoic Acid], the IC50 in series [1] (setting [4]) was determined as 2 ± 0.1 µM. Also, the Emax in series [1] (setting [5]) is 84 ± 1.3%. The “NADH oxidase activity (Complex I, III, IV) %” value in series [3] (1 μM) amounted to 77 ± 4.0%. In addition, the “NADH oxidase activity (Complex I, III, IV) %” value in series [3] (5 μM) turned out to be 62 ± 3.0%. The “Cytoprotection (in words)” value in series [2] (5 μM, compared with 6 and 9) is listed as “least protection”. The viability at 5 µM in series [2] (5 μM) is 36 ± 7.3%. Besides, in the series with FRDA lymphocytes, the inhibition at 5 µM stood at 8 ± 6.6% and the inhibition at 10 µM came out at 24%.

On to `CCCCCCCCCCCCCC1=C(O)C(=O)C=C(NCCCCCC)C1=O` [Compound 19, 5-(hexylamino)-2-hydroxy-3-tridecylcyclohexa-2,5-diene-1,4-dione], for which the melting point was 70 °C (dec.). Moreover, the IC50 in series [1] (read-out: Complex I inhibition IC50; submitochondrial particles, 30° C.) worked out at 20 ± 1.7 µM. For the same compound, in series [1] (read-out: Complex I inhibition Imax), the Emax was found to be 77 ± 6.2%. Besides, the “NADH oxidase activity (Complex I, III, IV) %” value in series [3] (1 μM) turned out to be 67 ± 6.0%. Further, the “NADH oxidase activity (Complex I, III, IV) %” value in series [3] (5 μM) was determined as 39 ± 1.0%. Besides, in series [2], the viability at 0.1 µM came out at 18 ± 2.1%, the viability at 0.5 µM came out at 22 ± 2.6% and the viability at 2.5 µM was found to be 43 ± 4.4%. In addition, the viability at 5 µM in series [2] (5 μM) was found to be 65 ± 5.2%. Also, in the series with FRDA lymphocytes, the inhibition at 1 µM was determined as 2 ± 0.3%, the inhibition at 5 µM stood at 27 ± 4.5% and the inhibition at 10 µM was found to be 38%.

For the compound `CCCCCCCCCCCCCC1=C(OC)C(=O)C=C(NCCCCCC)C1=O` [Compound 20, 5-(hexylamino)-2-methoxy-3-tridecylcyclohexa-2,5-diene-1,4-dione], the melting point is 110 °C (dec.). In addition, in series [1] (setting [4]), the concentration for half-maximal inhibition (IC50) was 482 ± 24 µM. Further, the Emax in series [1] (setting [5]) is greater than 85%. In addition, the “NADH oxidase activity (Complex I, III, IV) %” value in series [3] (1 μM) is listed as 74 ± 16%. For the same compound, the “NADH oxidase activity (Complex I, III, IV) %” value in series [3] (5 μM) was 47 ± 3.0%. In series [2], the viability at 0.1 µM is 20 ± 3.2%, the viability at 0.5 µM was 50 ± 5.2% and the viability at 2.5 µM is 66 ± 6.3%. Moreover, the viability at 5 µM in series [2] (5 μM) turned out to be 80 ± 4%. For the same compound, in the series on FRDA lymphocytes, the inhibition at 1 µM stood at 14 ± 1.3%, the inhibition at 5 µM is 61 ± 7.5% and the inhibition at 10 µM is 70%.

As to `C=CCCCCCCCCCc1c(OC)c(OC)cc(OC)c1OC` [Compound 34, 1,2,4,5-tetramethoxy-3-(undec-10-enyl)benzene], the melting point was 33 to 34 °C.

`C=CCCCCCCCCCC1=C(O)C(=O)C=C(NCCCCC=C)C1=O` [Compound 37, 5-(hex-5-enylamino)-2-hydroxy-3-(undec-10-enyl)cyclohexa-2,5-diene-1,4-dione] had a melting point of 77 to 78 °C.

Compound `C=CCCCCCCCCCC1=C(OC)C(=O)C=C(NCCCCC=C)C1=O` [Compound 38, 5-(hex-5-enylamino)-2-methoxy-3-(undec-10-enyl)cyclohexa-2,5-diene-1,4-dione] came in with a melting point of 45 to 46 °C.

`COC1=C2CCCCCCCCCC=CCCCCNC(=CC1=O)C2=O` [Compound 39] returned a melting point of 82 to 84 °C.
